Like-named read-outs stand apart in the source and are kept apart here.
Assays:
human T cells = experiment: T cell cytokine SFC response to cross-reactive CD4 epitopes (Tables 6-8); format: cell-based; conditions: for Total SFC: cross-reactive CD4 non-spike SARS-CoV-2 epitopes, all cytokines; for IFNg / IL5 / IL13: cross-reactive CD4 non-spike epitopes; for IFNg: IFNg spot forming cells; for IL5: IL5 spot forming cells; for IL13: IL13 spot forming cells
[1] = tested on: SARS-CoV-2-specific CD4+ T cells (OX40+CD137+) in PBMC; format: cell-based, human; conditions: CD4+ T cell epitopes identified by AIM assay; for Magnitude by # of responding donors: sum of response per responding donor
[2] = percent of tested donors responding
[3] = total response summed over donors

Row | Substance | Frequency of response (%) ([1]; share of donors responding) | Magnitude by # of responding donors [1] | Sum of response ([1]; total response) | other results
1 | 807 (LAILTALRLCAYCCN) [compound 807] |  |  |  | Total SFC (human T cells): 1800 SFC; IFNg (human T cells): 1760; IL5 (human T cells): 0; IL13 (human T cells): 0
2 | 248 (PSGTWLTYTGAIKLD) [compound 248] |  |  |  | Total SFC (human T cells): 1227 SFC; IFNg (human T cells): 947; IL5 (human T cells): 0; IL13 (human T cells): 0
3 | 846 (YIINLIIKNLSKSLT) [compound 846] |  |  |  | Total SFC (human T cells): 1393 SFC; IFNg (human T cells): 1283; IL5 (human T cells): 0; IL13 (human T cells): 0
4 | SHRFYRLANECAQVL | 6% | 535 | 535 | 
5 | QYGDCLGDIAARDLI | 8% | 152 | 152 | 
6 | LPNDDTLRVEAFEYY | 9% | 162 | 162 | 
7 | NLLLQYGSFCTQLNR |  | 1140 |  | Frequency of response (%) [1, 2]: 31%; Sum of response [1, 3]: 4560
8 | VYYPDKVFRSSVLHS | 15% | 198 | 395 | 
9 | NLVIGFLFLTWICLL | 7% | 261 | 261 | 
10 | IQWMVMFTPLVPFWI | 8% | 603 | 603 | 
11 | IDAYPLTKHPNQEYA | 14% | 115 | 229 | 
12 | PDLNGDVVAIDYKHY | 15% | 215 | 430 | 
13 | VNNSYECDIPIGAGI | 11% | 398 | 398 | 
14 | NVPLHGTILTRPLLE | 8% | 263 | 263 | 
15 | ELHLSWEVGKPRPPL | 8% | 103 | 103 | 
16 | IAGHHLGRCDIKDLP | 25% | 522 | 1565 | 
17 | KVTFFPDLNGDVVAI [SEQ ID NO 257] |  | 147 |  | Frequency of response (%) [1, 2]: 15%; Sum of response [1, 3]: 293
18 | TQAFGRRGPEQTQGN | 8% | 151 | 151 | 
19 | LGRCDIKDLPKEITV | 25% | 313 | 938 | 
20 | SIAIPTNFTISVTTE | 8% | 274 | 274 | 
21 | DFLEYHDVRVVLDFI | 18% | 341 | 681 | 
22 | VPGLPGTILRTTNGD | 9% | 439 | 439 | 
23 | YIRVGARKSAPLIEL [SEQ ID NO 256] |  | 366 |  | Frequency of response (%) [1, 2]: 18%; Sum of response [1, 3]: 731
24 | KTDGTLMIERFVSLA | 7% | 150 | 150 | 
25 | FVSGNCDVVIGIVNN | 7% | 180 | 180 | 

Row | Substance | Frequency of response (%) ([1]; share of donors responding) | Magnitude by # of responding donors [1] | Sum of response ([1]; total response) | other results
26 | NAPRITFGGPSDSTG | 6% | 259 | 259 | 
27 | TRRIRGGDGKMKDLS | 8% | 151 | 151 | 
28 | CCHLAKALNDFSNSG | 8% | 111 | 111 | 
29 | FTVEKGIYQTSNFRV |  | 1202 |  | Frequency of response (%) [1, 2]: 9%; Sum of response [1, 3]: 1202
30 | IRGWIFGTTLDSKTQ | 9% | 327 | 327 | 
31 | VNLTTRTQLPPAYTN | 8% | 170 | 170 | 
32 | NFSQILPDPSKPSKR |  | 647 |  | Frequency of response (%) [1, 2]: 33%; Sum of response [1, 3]: 2589
33 | TDTGVEHVTFFIYNK | 7% | 118 | 118 | 
34 | IKDLPKEITVATSRT | 23% | 258 | 774 | 
35 | SGHNLAKHCLHVVGP | 8% | 148 | 148 | 
36 | CTFEYVSQPFLMDLE |  | 619 |  | Frequency of response (%) [1, 2]: 64%; Sum of response [1, 3]: 4332
37 | SASFSTFKCYGVSPT | 8% | 294 | 294 | 
38 | TDEMIAQYTSALLAG | 9% | 745 | 745 | 
39 | NKDGIIWVATEGALN | 29% | 437 | 1747 | 
40 | EHVTFFIYNKIVDEP | 14% | 139 | 277 | 
41 | RFASVYAWNRKRISN | 27% | 241 | 722 | 
42 | LYIIKLIFLWLLWPV | 13% | 199 | 397 | 
43 | TFGGPSDSTGSNQNG | 6% | 291 | 291 | 
44 | GAVILRGHLRIAGHH | 8% | 512 | 512 | 
45 | FSNSGSDVLYQPPQT | 8% | 149 | 149 | 
46 | IQYIDIGNYTVSCLP | 9% | 1805 | 1805 | 
47 | YMSALNHTKKWKYPQ | 9% | 109 | 109 | 
48 | FNICQAVTANVNALL | 6% | 220 | 220 | 
49 | VTKNSKVQIGEYTFE | 8% | 118 | 118 | 
50 | IATNGPLKVGGSCVL | 8% | 112 | 112 | 

Row | Substance | Frequency of response (%) ([1]; share of donors responding) | Magnitude by # of responding donors [1] | Sum of response ([1]; total response) | other results
51 | FIYNKIVDEPEEHVQ | 14% | 243 | 486 | 
52 | SWFTALTQHGKEDLK | 23% | 1088 | 3265 | 
53 | QEPKLGSLVVRCSFY | 9% | 124 | 124 | 
54 | LEAPFLYLYALVYFL | 7% | 272 | 272 | 
55 | PVYSFLPGVYSVIYL | 8% | 650 | 650 | 
56 | AVITREVGFVVPGLP | 9% | 682 | 682 | 
57 | RGHLRIAGHHLGRCD | 42% | 472 | 2359 | 
58 | AVMSLKEGQINDMIL | 33% | 104 | 104 | 
59 | PNFSKLINIIIWFLL | 8% | 3802 | 3802 | 
60 | ADAVIKTLQPVSELL | 8% | 436 | 436 | 
61 | IWVATEGALNTPKDH | 7% | 200 | 200 | 
62 | LTQYNRYLALYNKYK | 8% | 638 | 638 | 
63 | SFNPETNILLNVPLH | 8% | 123 | 123 | 
64 | KLNDLCFTNVYADSF | 8% | 130 | 130 | 
65 | TFKCYGVSPTKLNDL | 8% | 221 | 221 | 
66 | DDQIGYYRRATRRIR [SEQ ID NO 245] | 23% | 268 | 803 | 
67 | YPKCDRAMPNMLRIM | 7% | 153 | 153 | 
68 | YDANYFLCWHTNCYD | 7% | 209 | 209 | 
69 | LMDLEGKQGNFKNLR | 36% | 347 | 1386 | 
70 | FGLVAEWFLAYILFT | 8% | 219 | 219 | 
71 | GYKKPASRELKVTFF | 15% | 246 | 491 | 
72 | LTGTGVLTESNKKFL | 7% | 427 | 427 | 
73 | LIFLWLLWPVTLACF | 8% | 1194 | 1194 | 
74 | WPQIAQFAPSASAFF | 33% | 376 | 1503 | 

Reference: patent US20230293630A1, “Coronavirus T Cell Epitopes and Uses Thereof” (priority 2020, published 2023)
